From patent US6733996B2, “Methods for regulating gene expression using light” (Trustees of Dartmouth College, priority 2002, dated 2004) come the findings set out here.

The test has as its target T1, WC-1/WC-2 (White Collar Complex) (Neurospora crassa, UniProt Q01371).
T1 construct: in vitro transcribe/translate full-length WC-1 using pAF60 as template and full length WC-2 using pGEM®/WC-2 as template; made in house; host or cells: cell-free: TNT-Coupled Reticulocyte Lysate system (Promega), templates pAF60 (WC-1) and pGEM/WC-2
The experiment in a line: Electrophoretic mobility shift assay of in vitro-translated WC-1 and WC-2 binding to frq LRE probe, with or without flavin cofactor and light. The conditions noted are these: for Average amount of faster migrating complex ± SEM / Average amount of slower migrating complex ± SEM: +FAD (1 mM in translation reaction), in vitro-translated WC-1 and WC-2, densitometry; for Light regulation of LRE binding of in vitro-translated WC-1/WC-2: flavin added to the WC-1 translation reaction, 1 mM. As for the experimental part: In vitro coupled transcription/translation was conducted to produce WC-1 and WC-2 proteins for subsequent use in binding reactions. WC-1 and WC-2 together were able to bind to the LREs as not just one, but two distinct complexes with mobilities similar to those seen using nuclear extracts. […] These complexes were not seen when either protein was used alone or when unprogrammed lysate was used.
In vitro translation experiments and subsequent binding reactions were repeated, this time adding FMN or flavin adenine dinucleotide (FAD) to the WC-1 translation reaction. FAD is the flavin cofactor for both the blue light-sensing cryptochromes (Cashmore, et al. (1999) Science 284:760) and the Euglena photoactivated adenyl cyclase (Iseki, et al. (2001) Nature 415:1047).
When FAD was combined with WC-1 and WC-2, light caused a marked increase in the amount of slower migrating complex relative to the reactions not treated with light. Furthermore, a marked increase in the slower migrating complex was observed, as compared to reactions lacking FAD treated with or without light. […] The addition of FAD confers light responsiveness to the WCC, similar to that seen with the nuclear extracts. In the dark, a faster migrating WC-1/WC-2 dimeric complex dominates, yielding in the presence of light to a larger, slower migrating WC-1/WC-2 multimeric complex. WC-1 with FAD, exposed to light in the absence of WC-2, can initiate the mobility shift when subsequently combined in the dark with WC-2. Furthermore, WC-1 can be reconstituted with free FAD after in vitro translation. Thus, it is WC-1 that is the initial active protein partner in mediating the photoresponse.
The probes consisted of two oligonucleotides of equal length annealed together and end-labeled using T4 polynucleotide kinase and [^γ-32P]ATP. Unincorporated ATP was removed using a BIO-GEL® P-30 chromatography column (BIO-RAD®, Hercules, Calif.), and probe was diluted to a final concentration of 0.018 μM. Oligonucleotide pairs were annealed for use as probe or unlabeled competitor. Distal LRE probe, the unrelated 42 bp competitor, and the mutated distal LRE competitor were generated with oligonucleotide pairs ACF57/ACF58, ACF40/ACF48 and ACF67/ACF68, respectively. The proximal LRE probe and mutated proximal LRE competitor were generated with oligonucleotide pairs ACF62/ACF63 and ACF69/ACF70, respectively.
Binding reactions using nuclear protein extracts contained 1× binding buffer, […], 0.1 μg poly(dI-dC), 1 μl probe, 0.5 μl of normal rabbit sera (Pocono Rabbit Farm, Canadensis, Pa.), and 3 μg of nuclear protein extract, which was added last to the binding reactions, in a total volume of 20 μl. In reactions that contained antisera, 1 μl anti-WC-1, 1 μl anti-WC-2, or 0.5 μl anti-FRQ was used. Binding reactions using in vitro translated proteins contained 1× binding buffer, 1 μg poly(dI-dC), 1 μl probe, and 6 μl of the in vitro translation reaction in a total volume of 20 μl . Binding reactions were incubated for 30 minutes on ice prior to electrophoresis at 4° C. on nondenaturing 4% polyacrylamide gels containing 0.5×TBE and 2.5% (v/v) glycerol. Gels were dried and visualized using a PhosphorImager and IMAGEQUANT® software (Molecular Dynamics, Sunnyvale, Calif.). Binding reactions and gel electrophoreses were performed under red lights.
TNT®-Coupled Reticulocyte Lysate system (PROMEGA®, Madison, Wis.) was used according to the manufacturer's directions to in vitro transcribe/translate full-length WC-1 using pAF60 as template and full length WC-2 using pGEM®/WC-2 as template. 8 μM ZnCl2 was added to each reaction. Where indicated, FAD (SIGMA®, St. Louis, Mo.) and FMN (SIGMA®, St. Louis, Mo.) were added to a final concentration of 1 mM. Reactions were conducted under red lights.

T1 sequence (Q01371 whole entry): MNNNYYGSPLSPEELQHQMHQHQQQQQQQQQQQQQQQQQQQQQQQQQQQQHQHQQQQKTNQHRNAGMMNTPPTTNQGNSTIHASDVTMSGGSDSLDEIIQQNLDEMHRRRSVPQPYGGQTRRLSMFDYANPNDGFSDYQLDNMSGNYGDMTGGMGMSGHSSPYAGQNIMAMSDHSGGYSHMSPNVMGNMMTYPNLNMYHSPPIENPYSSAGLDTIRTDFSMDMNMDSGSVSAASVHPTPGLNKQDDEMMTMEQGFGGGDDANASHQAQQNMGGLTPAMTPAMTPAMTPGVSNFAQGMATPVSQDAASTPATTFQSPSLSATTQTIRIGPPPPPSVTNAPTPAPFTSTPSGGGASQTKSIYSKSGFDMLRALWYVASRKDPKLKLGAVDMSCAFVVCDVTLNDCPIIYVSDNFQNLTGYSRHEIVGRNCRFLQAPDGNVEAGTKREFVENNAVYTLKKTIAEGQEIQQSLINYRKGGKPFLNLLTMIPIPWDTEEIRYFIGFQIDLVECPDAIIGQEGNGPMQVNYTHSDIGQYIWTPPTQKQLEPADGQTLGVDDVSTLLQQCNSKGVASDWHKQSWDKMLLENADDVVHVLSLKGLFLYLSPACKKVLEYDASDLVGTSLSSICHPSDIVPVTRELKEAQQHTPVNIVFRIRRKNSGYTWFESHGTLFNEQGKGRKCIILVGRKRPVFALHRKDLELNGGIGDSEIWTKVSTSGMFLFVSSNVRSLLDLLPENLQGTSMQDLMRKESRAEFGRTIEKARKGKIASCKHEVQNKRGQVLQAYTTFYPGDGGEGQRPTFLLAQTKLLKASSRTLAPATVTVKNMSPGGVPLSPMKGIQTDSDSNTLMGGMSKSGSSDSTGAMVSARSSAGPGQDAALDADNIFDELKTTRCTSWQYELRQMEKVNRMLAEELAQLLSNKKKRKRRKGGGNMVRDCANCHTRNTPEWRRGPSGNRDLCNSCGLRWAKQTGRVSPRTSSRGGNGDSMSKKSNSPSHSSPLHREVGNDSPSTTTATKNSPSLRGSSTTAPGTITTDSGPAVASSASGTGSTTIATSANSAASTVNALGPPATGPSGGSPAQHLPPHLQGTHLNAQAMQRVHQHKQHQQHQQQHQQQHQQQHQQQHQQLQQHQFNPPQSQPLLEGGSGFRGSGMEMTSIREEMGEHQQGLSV
T1 sequence (P78714 whole entry, further chain): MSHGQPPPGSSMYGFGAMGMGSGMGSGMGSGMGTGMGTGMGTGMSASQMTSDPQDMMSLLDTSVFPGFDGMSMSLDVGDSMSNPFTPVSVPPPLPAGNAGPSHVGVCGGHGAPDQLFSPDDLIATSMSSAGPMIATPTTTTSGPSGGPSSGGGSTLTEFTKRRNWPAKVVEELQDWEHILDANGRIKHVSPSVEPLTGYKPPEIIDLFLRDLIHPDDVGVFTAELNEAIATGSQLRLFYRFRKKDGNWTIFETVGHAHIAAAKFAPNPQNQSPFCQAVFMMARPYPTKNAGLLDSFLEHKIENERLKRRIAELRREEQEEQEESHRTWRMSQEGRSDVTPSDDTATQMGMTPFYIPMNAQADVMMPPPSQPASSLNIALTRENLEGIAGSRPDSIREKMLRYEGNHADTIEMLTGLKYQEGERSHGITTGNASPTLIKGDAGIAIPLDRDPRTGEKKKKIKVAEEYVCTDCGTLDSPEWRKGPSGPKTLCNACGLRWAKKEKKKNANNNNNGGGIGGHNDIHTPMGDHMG

Consider `Cc1cc2nc3c(=O)[nH]c(=O)nc-3n(C[C@H](O)[C@H](O)[C@H](O)COP(=O)(O)OP(=O)(O)OC[C@H]3O[C@@H](n4cnc5c(N)ncnc54)[C@H](O)[C@@H]3O)c2cc1C` [FAD, flavin adenine dinucleotide], for which the “Light regulation of LRE binding of in vitro-translated WC-1/WC-2” value was “conferred light sensitivity”. For the same compound, where the note is “Dark”, the “Average amount of faster migrating complex ± SEM” value turned out to be 334119 ± 43086 and the “Average amount of slower migrating complex ± SEM” value worked out at 56912 ± 3055. Besides, for the setting “Light”, the “Average amount of faster migrating complex ± SEM” value was found to be 264723 ± 22687 and the “Average amount of slower migrating complex ± SEM” value is recorded as 237163 ± 9706.

On to `Cc1cc2nc3c(=O)[nH]c(=O)nc-3n(C[C@H](O)[C@H](O)[C@H](O)COP(=O)(O)O)c2cc1C` [FMN, flavin mononucleotide], for which the “Light regulation of LRE binding of in vitro-translated WC-1/WC-2” value was “No light regulation of binding”.
